Assays:
[1] = Stability influencing factors: high humidity test; type: physicochemical
Procedure: (§1) In accordance with “Stability Testing of New Drug Substances and Products” in ICH Q1A and “Guidelines for the Stability Testing of Drug Substances and Preparations” in Pharmacopoeia of China, fourth part, 2015 edition, 9001, the stability influencing factors were tested for the crystal of the monohydrate formula II, including high temperature, high humidity and light tests.
(§2) In accordance with “Stability Testing of New Drug Substances and Products” in ICH Q1A and “Guidelines for the Stability Testing of Drug Substances and Preparations” in Pharmacopoeia of China, fourth part, 2015 edition, 9001, the stability influencing factors were tested for the crystal of the compound of formula I, including high temperature and high humidity tests.
(§3) In accordance with “Stability Testing of New Drug Substances and Products” in ICH Q1A and “Guidelines for the Stability Testing of Drug Substances and Preparations” in Pharmacopoeia of China, fourth part, 2015 edition, 9001, the stability influencing factors were tested for the amorphous form of the compound of formula I, including high temperature and high humidity tests.

[2] = Stability influencing factors: high temperature test; type: physicochemical
Procedure: as §1, §2, §3

[3] = Stability influencing factors: light test; type: physicochemical
Procedure: as §1

IDH1(R132H) = IDH1(R132H) (Homo sapiens, UniProt O75874, R132H); assay: Enzyme assay (NADPH/diaphorase/resazurin), IDH1 mutant inhibition; type: biochemical; conditions: 16 h pre-incubation with enzyme and NADPH at 23° C.
Source text: (§4) Resazurin is a traditional redox dye, and after a redox reaction, it can be reduced from a blue resazurin without fluorescence to a pink fluorescent substance, resorufin, which can be measured and quantified with relative fluorescence unit (RFU) of fluorophotometer (Ex=530-570 nm, Em=590-620 nm). At present, resazurin is widely used for determining the viability of bacteria, cells, etc., and the enzyme activity detection of oxidoreductase. We detected the decrease of cofactor NADPH to determine the inhibitory activity of a compound against IDH1m and detected the generation of cofactor NADPH to determine the inhibitory activity of a compound against IDH WT. […] The amount of the remaining cofactor NADPH after a specific reaction time was quantified via an easily detectable fluorophore.
(§5) The specific operation was as follows: 2.5 μl of the compound diluted in a 3-fold gradient was added to a 384-well plate, followed by adding 5 μl of the reaction buffer (20 mM Tris-HCl, pH 7.5; 150 mM NaCl; 10 mM MgCl2; 0.4 mg/mL BSA (Bovine Serum Albumin) and 2 mM DTT (dithiothreitol)) containing 40 nM IDH1 (R132H/R132C) and 20 μM NADPH. […] After incubating at 23° C. for 10 minutes, fluorescence values were determined through Flexstation 3 at Ex535/Em595. […]

IDH1(R132C) = IDH1(R132C) (Homo sapiens, UniProt O75874, R132C); assay: as above; type: biochemical; conditions: 16 h pre-incubation with enzyme and NADPH at 23° C.
Source text: as §4, §5

[4] = Pharmacokinetic experiments, single peroral administration; type: in vivo; conditions: rat; male SD rats, oral 5 mg/kg, suspension in 0.5% MC, 0.2% Tween80, plasma
Procedure: Male SD rats were from Beijing Vital River Laboratory Animal Technology Co., Ltd., and divided into groups (3 rats per group). The rats were intragastrically administered with the test sample suspension (5 mg/kg) via a single peroral administration, respectively. The animals were fasted overnight before this study. The fasting time period was from 10 hours before administration to 4 hours after administration. Blood samples were taken at 0.25, 0.5, 1, 2, 4, 6, 8 and 24 hours after administration. After the rats were anesthetized with isoflurane using an anesthesia machine for small animal, and then 0.3 mL whole blood samples were taken from the fundus venous plexus. The blood samples were placed in heparin anticoagulant tubes, and centrifuged for 5 min at 4° C. and 4000 rpm. The plasma was transferred to centrifuge tubes, and stored at −80° C. till analysis. The samples in plasma were extracted through protein precipitation. The liquid extract was analyzed by LC-MS/MS, wherein HPLC conditions were as follows: flow rate 0.4 mL/min; mobile phase A: water/formic acid (99.9/0.1, v/v); mobile phase B: acetonitrile/formic acid (99.9/0.1, v/v); injection volume: 5 μL; column temperature: RT; autosampler temperature: RT; run time: 2.5 min.

Sequence of IDH1(R132H) (O75874 whole entry R132H): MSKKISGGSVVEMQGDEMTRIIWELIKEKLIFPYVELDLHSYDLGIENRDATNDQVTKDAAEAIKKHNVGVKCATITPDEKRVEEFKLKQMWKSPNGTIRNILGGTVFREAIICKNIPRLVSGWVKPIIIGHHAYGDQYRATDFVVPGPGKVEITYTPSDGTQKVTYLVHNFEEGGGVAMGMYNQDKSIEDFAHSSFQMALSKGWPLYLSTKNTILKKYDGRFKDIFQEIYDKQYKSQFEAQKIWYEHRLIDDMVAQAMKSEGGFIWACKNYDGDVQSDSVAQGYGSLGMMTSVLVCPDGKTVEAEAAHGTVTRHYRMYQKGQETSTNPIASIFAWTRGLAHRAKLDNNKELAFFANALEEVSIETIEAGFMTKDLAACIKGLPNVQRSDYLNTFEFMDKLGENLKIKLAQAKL
Sequence of IDH1(R132C) (O75874 whole entry R132C): as the sequence (O75874 whole entry R132H) above, with H132C counted along it

## N#Cc1ccnc(N2[C@H](C(=O)N(c3cccc(F)c3)[C@H](C(=O)NC3CC(F)(F)C3)c3ccccc3Cl)CCS2(=O)=O)c1 [crystal of the monohydrate of formula II]
[1]; 0 day
  Appearance: White
  Enantiomers (%): 0.01%
  Total impurities (%): 0.38%
  Total of diastereoisomers (%): 0.05%
  Water (%): 3.10%
[1]; 75% RH, 5 day
  Appearance: White
  Enantiomers (%): 0.01%
  Total impurities (%): 0.44%
  Total of diastereoisomers (%): 0.05%
  Water (%): 2.69%
[1]; 75% RH, 10 day
  Appearance: White
  Enantiomers (%): 0.01%
  Total impurities (%): 0.50%
  Total of diastereoisomers (%): 0.05%
  Water (%): 2.53%
[1]; 92.5% RH, 5 day
  Appearance: White
  Enantiomers (%): 0.01%
  Total impurities (%): 0.49%
  Total of diastereoisomers (%): 0.04%
  Water (%): 2.72%
[1]; 92.5% RH, 10 day
  Appearance: White
  Enantiomers (%): 0.01%
  Total impurities (%): 0.49%
  Total of diastereoisomers (%): 0.05%
  Water (%): 2.42%
[2]; 0 day
  Appearance: White
  Enantiomers (%): 0.01%
  Total impurities (%): 0.38%
  Total of diastereoisomers (%): 0.05%
  Water (%): 3.10%
[2]; 40° C., 5 day
  Appearance: White
  Enantiomers (%): 0.01%
  Total impurities (%): 0.45%
  Total of diastereoisomers (%): 0.05%
  Water (%): 2.69%
[2]; 40° C., 10 day
  Appearance: White
  Enantiomers (%): 0.01%
  Total impurities (%): 0.47%
  Total of diastereoisomers (%): 0.05%
  Water (%): 2.45%
[2]; 60° C., 5 day
  Appearance: White
  Total impurities (%): 0.48%
  Total of diastereoisomers (%): 0.05%
  Water (%): 2.67%
[2]; 60° C., 10 day
  Appearance: White
  Enantiomers (%): 0.01%
  Total impurities (%): 0.47%
  Total of diastereoisomers (%): 0.05%
  Water (%): 2.51%
[3]; 0 day
  Appearance: White
  Enantiomers (%): 0.01%
  Total impurities (%): 0.38%
  Total of diastereoisomers (%): 0.05%
  Water (%): 3.10%
[3]; Lighting, 5 day
  Appearance: White
  Enantiomers (%): 0.01%
  Total impurities (%): 0.56%
  Total of diastereoisomers (%): 0.05%
  Water (%): 2.72%
[3]; Lighting, 10 day
  Appearance: White
  Enantiomers (%): 0.01%
  Total impurities (%): 0.63%
  Total of diastereoisomers (%): 0.05%
  Water (%): 2.47%
[3]; shading, 5 day
  Appearance: White
  Enantiomers (%): 0.01%
  Total impurities (%): 0.49%
  Total of diastereoisomers (%): 0.05%
  Water (%): 2.73%
[3]; shading, 10 day
  Appearance: White
  Enantiomers (%): 0.01%
  Total impurities (%): 0.47%
  Total of diastereoisomers (%): 0.05%
  Water (%): 2.55%

## N#Cc1ccnc(N2[C@H](C(=O)N(c3cccc(F)c3)[C@H](C(=O)NC3CC(F)(F)C3)c3ccccc3Cl)CCS2(=O)=O)c1 [amorphous form of the compound of formula I]
[1]; 0 day
  Appearance: White
  Total impurities (%): 0.28%
  Water (%): 1.4%
[1]; 75% RH, 5 day
  Appearance: White
  Total impurities (%): 0.30%
  Water (%): 1.7%
[1]; 75% RH, 10 day
  Appearance: White
  Total impurities (%): 0.30%
  Water (%): 1.8%
[1]; 75% RH, 30 day
  Appearance: White
  Total impurities (%): 0.27%
  Water (%): 1.8%
[1]; 92.5% RH, 5 day
  Appearance: White
  Total impurities (%): 0.30%
  Water (%): 2.1%
[1]; 92.5% RH, 10 day
  Appearance: White
  Total impurities (%): 0.29%
  Water (%): 2.3%
[1]; 92.5% RH, 30 day
  Appearance: White
  Total impurities (%): 0.26%
  Water (%): 2.4%
[2]; 0 day
  Appearance: White
  Total impurities (%): 0.28%
  Water (%): 1.4%
[2]; 40° C., 5 day
  Appearance: White
  Total impurities (%): 0.25%
  Water (%): 1.1%
[2]; 40° C., 10 day
  Appearance: White
  Total impurities (%): 0.28%
  Water (%): 1.0%
[2]; 40° C., 30 day
  Appearance: White
  Total impurities (%): 0.26%
  Water (%): 0.8%
[2]; 60° C., 5 day
  Appearance: White
  Total impurities (%): 0.31%
  Water (%): 0.8%
[2]; 60° C., 10 day
  Appearance: White
  Total impurities (%): 0.27%
  Water (%): 0.6%
[2]; 60° C., 30 day
  Appearance: White
  Total impurities (%): 0.28%
  Water (%): 0.5%

## N#Cc1ccnc(N2[C@H](C(=O)N(c3cccc(F)c3)[C@H](C(=O)NC3CC(F)(F)C3)c3ccccc3Cl)CCS2(=O)=O)c1 [Compound of formula I, (S)—N—((S)-1-(2-chlorophenyl)-2-((3,3-difluorocyclobutyl)amino)-2-oxoethyl)-2-(4-cyanopyridin-2-yl)-N-(3-fluorophenyl)-isothiazolidine-3-carboxamide 1,1-dioxide]
IDH1(R132H)
  IC50: < 20 nM
IDH1(R132C)
  IC50: < 20 nM
[4]
  Tmax: 4 h

## N#Cc1ccnc(N2[C@H](C(=O)N(c3cccc(F)c3)[C@H](C(=O)NC3CC(F)(F)C3)c3ccccc3Cl)CCS2(=O)=O)c1 [crystal of the compound of formula I]
[1]; 0 day
  Appearance: White
  Total impurities (%): 0.39%
  Water (%): 0.45%
[1]; 75% RH, 5 day
  Appearance: White
  Total impurities (%): 0.43%
  Water (%): 0.94%
[1]; 75% RH, 12 day
  Appearance: White
  Total impurities (%): 0.37%
  Water (%): 1.16%
[1]; 92.5% RH, 5 day
  Appearance: White
  Total impurities (%): 0.47%
  Water (%): 1.58%
[1]; 92.5% RH, 12 day
  Appearance: White
  Total impurities (%): 0.37%
  Water (%): 1.75%
[2]; 0 day
  Appearance: White
  Total impurities (%): 0.39%
  Water (%): 0.45%
[2]; 40° C., 5 day
  Appearance: White
  Total impurities (%): 0.42%
  Water (%): 0.85%
[2]; 40° C., 12 day
  Appearance: White
  Total impurities (%): 0.37%
  Water (%): 0.85%
[2]; 60° C., 5 day
  Appearance: White
  Total impurities (%): 0.63%
  Water (%): 0.59%
[2]; 60° C., 12 day
  Appearance: White
  Total impurities (%): 0.54%
  Water (%): 0.73%
